In patent US9393295B2, “Nanoparticles for use in pharmaceutical compositions” (Novartis AG, priority 2008, dated 2016):

Experiment: SMIP encapsulation efficiency (UPLC of pellet and supernatant)
Assay type: physicochemical
Settings: RG 502H 2% w/v nanoparticles, theoretical SMIP loading 2% w/w of PLG
Description: Nanoparticles with a theoretical SMIP loading level of 2% w/w of PLG were prepared for the SMIP encapsulation study. Both water (pH 5.5-6) and Tris EDTA buffer (pH 7-8) were used for the aqueous phases. […] Since, a basic SMIP is being employed here, Tris EDTA buffer was used for the aqueous phase, which maintained the pH of the suspension between 7 and 8.
The encapsulation efficiency was calculated as a ratio of mass of SMIP in the nanoparticles to the mass of SMIP used in the formulation. More particularly, the nanoparticle suspension was aliquoted (1 ml) into 2 vials and centrifuged at 16000 RPM for 30 minutes. The amount of SMIP in the supernatant was determined using an ultra performance liquid chromatography (Waters Acquity UPLC, Milford, Mass., USA) assay. The pellet was washed three times and the amount of SMIP in the pellet was determined after hydrolyzing the pellet with sodium hydroxide, followed by neutralization with hydrochloric acid. Encapsulation efficiency was calculated as ratio of the SMIP in the pellet to the total SMIP content of the suspension. Mass balance was achieved by hydrolyzing 1 ml of the suspension and determining the total SMIP content in 1 ml of the suspension.

In the case of CCCN(C)c1nc2c(N)nc3ccccc3c2n1CC(C)(C)O [SMIP], the encapsulation efficiency (Tris EDTA buffer (pH 7-8) as aqueous phase) is reported as “greater than 90%” and the encapsulation efficiency (water (pH 5.5-6) as aqueous phase) is reported as 40-50%.
